Experiment [1] deals with H2Bub. As to the kind of experiment: Western blot of H2B monoubiquitination (H2Bub) after glucose. In kind it is cell-based, budding yeast (Saccharomyces cerevisiae). The conditions noted are these: for H2Bub/H2B: 0.5 hr. The method, then: (§1) To examine the effect of glucose on histone modifications, yeast cells were grown in 2% glucose-containing YPD (Yeast Extract Peptone Dextrose) medium until OD600 of 0.7–1.0. Cells were then collected, washed and resuspended in YP medium for 3 hr followed by treatment with different concentrations of glucose for 0.5 hr. For 1NM-PP1 (MCE, HY-13804) treatment, cells were grown in 2% YPD until OD600 of 0.7–1.0. Cells were then treated with 25 μM 1NM-PP1 for 0.5 hr. For FBP and pyruvate treatment, cells were pre-treated with Zymolase (Mpbio, 08320921) to increase the permeability. In brief, cells were grown in YPD medium until OD600 of 0.7–1.0, centrifuged and resuspended in 1 ml SB buffer (100 mM Sorbitol, 20 mM Tris pH 7.4). 10 μl Zymolase was then added and incubated at 30 °C for 15 min. The spheroplasts were washed and cultured in YPD medium containing different concentrations of FBP and pyruvate for 3 hr.
Cells were grown in 5 ml YPD or selective medium until OD600 of 0.7–1.0. Cells were harvested and lysed in alkaline lysis buffer (2 M NaOH, 8% 2-mercaptoethanol). After centrifugation, the protein pellet was resuspended in 150 μl 2×SDS-sample buffer. Protein samples were separated by 8–15% SDS-PAGE and transferred to PVDF membrane. The blots were probed with primary antibodies followed by incubation with horseradish peroxidase-labelled IgG secondary antibodies. The protein bands were visualized using the ECL Chemiluminescence Detection Kit (Bio-Rad, 170–5061) and quantified with Image J software (v.1.8.0).
Supplementary Fi g . […] WT (a) and H2B-F LA G cel ls (b) wer e grown in YPD medium until OD600 of 0.7.
Cells were th en tr eat ed with YP medium supplement ed with differen t concentrations of glucos e for 0.5 hr. C ells were h ar vested an d the ex tract ed histones w er e anal yz ed by Western blots with indicat ed ant ibodies. To d et ect H2B monoubiquitination, H2B-F LAG strain w as used and d et ect ed with anti -F LAG ant ibody. Th e upper bands ar e monoubiquitinat ed H2B-F LAG. c E ff e c t of gl ucose on histone modifications in WT and ubp8∆ ubp10∆ mutant. WT and ubp8∆ ubp10∆ mut ant w er e gro wn in YPD medium unti l OD600 of 0.7. Cells wer e th en treated with YP medium supplem ent ed with di fferent con cen tr ations of gl u cos e fo r 0.5 hr. d Gluco se has no effect on the activit y of C O M PA S S . Spp1-TA P cells wer e grown in YPD medium until OD600 of 1.5. Cells were h arv est ed and then treat ed with YP + 0.05% glucos e and YP + 4% gl u cos e for 0.5 hr. Spp1-cont aining COMPASS (Spp1-CBP ) was then p urifi ed by tand em affinit y puri fi cati on ( TA P ) . Th e in vitro hi stone meth yltransferase assa y was p er form ed wit h purifi ed C O M PA S S and in vitro assembl ed nucl eosom es. e E ff e c t of the m TO R pathwa y on H3K4 meth ylation. […]
For Supplem ent ar y Fi g. 1b, e-g, i-k, d at a r ep res ent means ± SEM; n=3 i ndependent ex perim ents. For Supplem entar y Fi g. 1c, d ata represent means ± SEM; n=4 independent ex periments. Tw o -sided t-tests were used for statistical analysis.

The test system of experiment [2] is H3K14ac. As to the kind of experiment: Western blot of H3K14ac (glucose, mutants). Format: cell-based, budding yeast (Saccharomyces cerevisiae). As for the experimental part:
as §1
(§2) Cells were grown in 5 ml YPD or selective medium until OD600 of 0.7–1.0. Cells were harvested and lysed in alkaline lysis buffer (2 M NaOH, 8% 2-mercaptoethanol). After centrifugation, the protein pellet was resuspended in 150 μl 2×SDS-sample buffer. Protein samples were separated by 8–15% SDS-PAGE and transferred to PVDF membrane. […] The protein bands were visualized using the ECL Chemiluminescence Detection Kit (Bio-Rad, 170–5061) and quantified with Image J software (v.1.8.0).

Experiment [3] has as its system Jhd2 phosphorylation. The experiment is described as follows: Jhd2 phosphorylation in cells at different glucose concentrations. Format: cell-based, budding yeast (Saccharomyces cerevisiae). The conditions noted are these: 0.05%, 0.5%, 2% glucose, WT, Jhd2-S321A, S340A and tpk2Δ. As for the experimental part:
as §1, §2

Experiment [4] concerns Jhd2. As to the kind of experiment: In vitro demethylase assay, Jhd2 purified from cells grown in increasing glucose. Format: biochemical, budding yeast (Saccharomyces cerevisiae). The conditions noted are these: Jhd2 from cells grown in 0.05%, 0.5%. As for the experimental part: We also purified unphosphorylated Jhd2 from tpk2Δ mutant (Jhd2 tpk2Δ) and performed in vitro demethylase assay. […] We also treated WT Jhd2 with λ phosphatase to remove its phosphorylation and then used this dephosphorylated Jhd2 for in vitro demethylase assay. […] Furthermore, we purified Jhd2 from cells grown in increasing glucose concentrations (0.05%, 0.5%, 2%) and performed in vitro demethylase assay.
The reaction was quenched by adding 2×SDS-PAGE loading buffer and incubated at 95 °C for 10 min. Samples were spotted to PVDF membrane followed by dot blots with indicated antibodies.

This is an account of results in article PMC9515143, “Phosphorylation of Jhd2 by the Ras-cAMP-PKA(Tpk2) pathway regulates histone modifications and autophagy” (Nature Communications, 2022).

Turning to `OC[C@H]1OC(O)[C@H](O)[C@@H](O)[C@@H]1O` (some centres unmarked) [glucose], the H2Bub/H2B in experiment [1] (0.5% glucose, relative to 0.05% glucose = 1, replicate 1) was 1.541; in experiment [1] (0.5% glucose, relative to 0.05% glucose = 1, replicate 2), 1.389; in experiment [1] (0.5% glucose, relative to 0.05% glucose = 1, replicate 3), 1.9778; in experiment [1] (1% glucose, relative to 0.05% glucose = 1, replicate 1) it was 1.812; in experiment [1] (1% glucose, relative to 0.05% glucose = 1, replicate 2), 3.264; in experiment [1] (1% glucose, relative to 0.05% glucose = 1, replicate 3), 4.024. In addition, the H2Bub/H2B in experiment [1] (2% glucose, relative to 0.05% glucose = 1, replicate 1) came to 2.484; in experiment [1] (2% glucose, relative to 0.05% glucose = 1, replicate 2), 4.332; in experiment [1] (2% glucose, relative to 0.05% glucose = 1, replicate 3), 3.575; in experiment [1] (4% glucose, relative to 0.05% glucose = 1, replicate 1), 3.885; in experiment [1] (4% glucose, relative to 0.05% glucose = 1, replicate 2), 5.306; in experiment [1] (4% glucose, relative to 0.05% glucose = 1, replicate 3), 5.56. Also, in experiment [1] (H2B-FLAG cells, glucose 0.5 hr, Western blot), the H2Bub level result was “induced H2Bub”. The H3K14ac level entry in experiment [2] (WT cells, glucose 0.5 hr) is given as “induced H3K14ac”. Besides, the “H3K14ac level, WT versus Jhd2-S321A, S340A and tpk2Δ” value in experiment [2] (glucose) was “increased in response to glucose in WT but not in Jhd2-S321A, S340A and tpk2Δ mutants”. Moreover, in experiment [3], the “Jhd2 phosphorylation in response to glucose” value is “Jhd2 phosphorylation was elevated when the concentration of glucose was increased from 0.05 to 2% in WT but not in Jhd2-S321A, S340A and tpk2Δ mutants”. Moreover, the “phosphorylation level and demethylase activity of Jhd2 purified from cells in 2% glucose versus 0.05% glucose” value in experiment [4] is reported as “higher phosphorylation level but lower demethylase activity”.
